Experimental data from the supplement of paper PMC4862054.

Tests used:
[1] = test system: BT-474; conditions: 72 h
Method in brief: (§1)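 EC50 was fitted from dose-response curves and censored at the highest concentration tested. To build those curves, breast cancer cell lines (20 µl suspension) were seeded into 384-well plates containing compound at 5 concentrations in 10-fold steps over a compound-specific 10,000-fold range and incubated for 72 h. Readouts were CellTox Green fluorescence (485/520 nm) for cell death and then CellTiter-Glo luminescence for viability, with each plate normalised to 0.1 % DMSO and a positive kill control.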

[2] = test system: BT-549; conditions: 72 h
Method in brief: as §1

[3] = test system: CAL-120; conditions: 72 h
Method in brief: as §1

[4] = test system: CAL-148; conditions: 72 h
Method in brief: as §1

[5] = test system: CAL-51; conditions: 72 h
Method in brief: as §1

[6] = test system: CAL-85-1; conditions: 72 h
Method in brief: as §1

[7] = test system: DU-4475; conditions: 72 h
Method in brief: as §1

[8] = test system: HCC1143; conditions: 72 h
Method in brief: as §1

[9] = test system: HCC1599; conditions: 72 h
Method in brief: as §1

[10] = test system: HCC1937; conditions: 72 h
Method in brief: as §1

[11] = test system: HDQ-P1; conditions: 72 h
Method in brief: as §1

[12] = test system: Hs578T; conditions: 72 h
Method in brief: as §1

[13] = test system: MCF-10A; conditions: 72 h
Method in brief: as §1

[14] = test system: MDA-MB-231; conditions: 72 h
Method in brief: as §1

[15] = test system: MDA-MB-436; conditions: 72 h
Method in brief: as §1

[16] = test system: MDA-MB-453; conditions: 72 h
Method in brief: as §1

[17] = test system: MDA-MB-468; conditions: 72 h
Method in brief: as §1

[18] = test system: MFM-223; conditions: 72 h
Method in brief: as §1

[19] = test system: SK-BR-3; conditions: 72 h
Method in brief: as §1

[20] = test system: CAL-148; conditions: 72 h; remark: listed apart in the source
Method in brief: (§2)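 Compound dissolved in 5 µl medium was placed in 384-well plates before 20 µl of breast cancer cell suspension was added, and the plates were incubated for 72 h. Cells then received 2.5 µl CellTiter-Blue for 2 h at 37 °C, and fluorescence was read at 560/590 nm. EC50 values come from percent-inhibition dose-response fits that were censored at the highest concentration, with plates normalised to vehicle and a positive kill control and rows with a zero drug sensitivity score excluded.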

[21] = test system: CAL-51; conditions: 72 h; remark: listed apart in the source
Method in brief: as §2

[22] = test system: CAL-85-1; conditions: 72 h; remark: listed apart in the source
Method in brief: as §2

[23] = test system: DU-4475; conditions: 72 h; remark: listed apart in the source
Method in brief: as §2

[24] = test system: HDQ-P1; conditions: 72 h; remark: listed apart in the source
Method in brief: as §2

[25] = test system: MDA-MB-453; conditions: 72 h; remark: listed apart in the source
Method in brief: as §2

[26] = test system: BT-549; conditions: 72 h; remark: listed apart in the source
Method in brief: as §2

[27] = test system: CAL-120; conditions: 72 h; remark: listed apart in the source
Method in brief: as §2

[28] = test system: HCC1143; conditions: 72 h; remark: listed apart in the source
Method in brief: as §2

[29] = test system: HCC1599; conditions: 72 h; remark: listed apart in the source
Method in brief: as §2

[30] = test system: HCC1937; conditions: 72 h; remark: listed apart in the source
Method in brief: as §2

[31] = test system: Hs578T; conditions: 72 h; remark: listed apart in the source
Method in brief: as §2

[32] = test system: MDA-MB-231; conditions: 72 h; remark: listed apart in the source
Method in brief: as §2

[33] = test system: MDA-MB-436; conditions: 72 h; remark: listed apart in the source
Method in brief: as §2

[34] = test system: MDA-MB-468; conditions: 72 h; remark: listed apart in the source
Method in brief: as §2

[35] = test system: MFM-223; conditions: 72 h; remark: listed apart in the source
Method in brief: as §2

[36] = test system: SK-BR-3; conditions: 72 h; remark: listed apart in the source
Method in brief: as §2

[37] = test system: MDA-MB-231; experiment: normalised viability (% of control), CellTiter-Blue; higher = more viable cells (about 100 = DMSO control); conditions: incubation time: 72 h
Method in brief: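 The reported figure is normalised viability at a single listed concentration of the series. Breast cancer cell lines (20 µl suspension) went onto 384-well plates holding compound in 5 µl medium for 72 h. CellTiter-Blue (2.5 µl, 2 h, 37 °C) was read by fluorescence at 560/590 nm, and each plate was scaled to vehicle at 100 and a positive kill control at 0.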

Question: What does the source list for `COC(=O)C[C@](O)(CCCC(C)(C)O)C(=O)O[C@@H]1C(OC)=C[C@]23CCCN2CCc2cc4c(cc2[C@H]13)OCO4` [Omacetaxine]?
Answer: EC50, CellTiter-Glo [1]: 0.299 µM; EC50, CellTiter-Glo [2]: 0.0503 µM; EC50, CellTiter-Glo [3]: 0.0938 µM; EC50, CellTiter-Glo [4]: 0.0568 µM; EC50, CellTiter-Glo [5]: 0.0375 µM; EC50, CellTiter-Glo [6]: 0.0362 µM; EC50, CellTiter-Glo [7]: 0.0144 µM; EC50, CellTiter-Glo [8]: 0.0806 µM; EC50, CellTiter-Glo [9]: 0.0411 µM; EC50, CellTiter-Glo [10]: 0.0643 µM; EC50, CellTiter-Glo [11]: 0.0391 µM; EC50, CellTiter-Glo [12]: 0.0683 µM; EC50, CellTiter-Glo [13]: 0.116 µM; EC50, CellTiter-Glo [14]: 0.138 µM; EC50, CellTiter-Glo [15]: 0.0226 µM; EC50, CellTiter-Glo [16]: 0.0739 µM; EC50, CellTiter-Glo [17]: 0.0455 µM; EC50, CellTiter-Glo [18]: 0.102 µM; EC50, CellTiter-Glo [19]: 0.0867 µM; EC50, CellTiter-Blue viability [20]: 0.0137 µM; EC50, CellTiter-Blue viability [21]: 0.0215 µM; EC50, CellTiter-Blue viability [22]: 0.0174 µM; EC50, CellTiter-Blue viability [23]: 0.00548 µM; EC50, CellTiter-Blue viability [24]: 0.0138 µM; EC50, CellTiter-Blue viability [25]: 0.0247 µM; EC50, CellTiter-Blue viability [26]: 0.0321 µM; EC50, CellTiter-Blue viability [27]: 0.0169 µM; EC50, CellTiter-Blue viability [28]: 0.0469 µM; EC50, CellTiter-Blue viability [29]: 0.018 µM; EC50, CellTiter-Blue viability [30]: 0.00968 µM; EC50, CellTiter-Blue viability [31]: 0.044 µM; EC50, CellTiter-Blue viability [32]: 0.0363 µM; EC50, CellTiter-Blue viability [33]: 0.0266 µM; EC50, CellTiter-Blue viability [34]: 0.0357 µM; EC50, CellTiter-Blue viability [35]: 0.0453 µM; EC50, CellTiter-Blue viability [36]: 0.0343 µM

Question: Which results are given for `CC(=O)O[C@H]1C(=O)[C@@]2(C)[C@H]([C@H](OC(=O)c3ccccc3)[C@]3(O)C[C@H](OC(=O)[C@H](O)[C@@H](NC(=O)c4ccccc4)c4ccccc4)C(C)=C1C3(C)C)[C@]1(OC(C)=O)CO[C@@H]1C[C@@H]2O` [Paclitaxel]?
Answer: EC50, CellTiter-Glo [1]: 0.00794 µM; EC50, CellTiter-Glo [2]: 0.00479 µM; EC50, CellTiter-Glo [3]: 0.00696 µM; EC50, CellTiter-Glo [4]: 0.00196 µM; EC50, CellTiter-Glo [5]: 0.00796 µM; EC50, CellTiter-Glo [6]: 0.00473 µM; EC50, CellTiter-Glo [7]: 0.044 µM; EC50, CellTiter-Glo [8]: 0.00337 µM; EC50, CellTiter-Glo [9]: 0.0169 µM; EC50, CellTiter-Glo [10]: 0.00262 µM; EC50, CellTiter-Glo [11]: 0.00281 µM; EC50, CellTiter-Glo [12]: 0.00632 µM; EC50, CellTiter-Glo [13]: 0.00365 µM; EC50, CellTiter-Glo [14]: 0.0107 µM; EC50, CellTiter-Glo [15]: 0.00407 µM; EC50, CellTiter-Glo [16]: 0.0226 µM; EC50, CellTiter-Glo [17]: 0.00347 µM; EC50, CellTiter-Glo [18]: 0.00586 µM; EC50, CellTiter-Glo [19]: 0.00072 µM; EC50, CellTiter-Blue viability [20]: 0.00675 µM; EC50, CellTiter-Blue viability [21]: 0.0122 µM; EC50, CellTiter-Blue viability [22]: 0.00728 µM; EC50, CellTiter-Blue viability [23]: 0.0186 µM; EC50, CellTiter-Blue viability [24]: 0.00126 µM; EC50, CellTiter-Blue viability [25]: 0.00403 µM; EC50, CellTiter-Blue viability [26]: 0.0027 µM; EC50, CellTiter-Blue viability [27]: 0.00355 µM; EC50, CellTiter-Blue viability [28]: 0.0074 µM; EC50, CellTiter-Blue viability [29]: 0.111 µM; EC50, CellTiter-Blue viability [30]: 0.00422 µM; EC50, CellTiter-Blue viability [31]: 0.0052 µM; EC50, CellTiter-Blue viability [32]: 0.00229 µM; EC50, CellTiter-Blue viability [33]: 0.00449 µM; EC50, CellTiter-Blue viability [34]: 0.0027 µM; EC50, CellTiter-Blue viability [35]: 0.00449 µM; EC50, CellTiter-Blue viability [36]: 0.00293 µM; normalised viability ([37]; 1 nM): 79.2%; normalised viability ([37]; 100 nM): 19.9%; normalised viability ([37]; 1000 nM): 22.1%

Question: Which “EC50, CellTiter-Glo” value [1] does the source give for `FC(F)c1nc2ccccc2n1-c1nc(N2CCOCC2)nc(N2CCOCC2)n1` [ZSTK474] here?
Answer: 3.04 µM

Question: And the “EC50, CellTiter-Glo” value [2]?
Answer: 0.396 µM

Question: What about the “EC50, CellTiter-Glo” value [3] of the same molecule?
Answer: 0.958 µM

Question: And the “EC50, CellTiter-Glo” value [4]?
Answer: 1.26 µM

Question: And the “EC50, CellTiter-Glo” value [5]?
Answer: 1.01 µM

Question: And the “EC50, CellTiter-Glo” value [6]?
Answer: 0.779 µM

Question: And the “EC50, CellTiter-Glo” value [7]?
Answer: 6.59 µM

Question: What about the “EC50, CellTiter-Glo” value [8] of the same molecule?
Answer: 1.13 µM

Question: And the “EC50, CellTiter-Glo” value [9]?
Answer: 0.538 µM

Question: What about the “EC50, CellTiter-Glo” value [10] of the same molecule?
Answer: 2.73 µM

Question: What about the “EC50, CellTiter-Glo” value [11] of the same molecule?
Answer: 0.436 µM

Question: And the “EC50, CellTiter-Glo” value [12]?
Answer: 0.493 µM

Question: What about the “EC50, CellTiter-Glo” value [13] of the same molecule?
Answer: 0.54 µM

Question: And the “EC50, CellTiter-Glo” value [14]?
Answer: 0.72 µM

Question: What about the “EC50, CellTiter-Glo” value [15] of the same molecule?
Answer: 0.498 µM

Question: And the “EC50, CellTiter-Glo” value [16]?
Answer: 0.491 µM

Question: And the “EC50, CellTiter-Glo” value [17]?
Answer: 0.677 µM

Question: What about the “EC50, CellTiter-Glo” value [18] of the same molecule?
Answer: 0.737 µM

Question: What about the “EC50, CellTiter-Glo” value [19] of the same molecule?
Answer: 0.206 µM
